{"source": "patent US6566359B1", "about": "“2,4,6-trimethyl-1,4-dihydro-pyridine-3,5-dicarboxylic acid esters as neuroprotective drugs” (Board of Supervisors of Louisiana State University and …, priority 2002, dated 2003)", "key": {"[1]": {"assay": "Middle cerebral artery occlusion (MCA-O) stroke model, infarct volume by TTC", "type": "in vivo, C57BL/6 mice"}, "[2]": {"test_system": "c-jun aminoterminal protein kinase (JNK)", "assay": "PAF-mediated JNK activation in HEK-293 cells, immunocomplex kinase assay", "type": "cell-based, human", "settings": "PAF 100 nM", "description": "Experimental Protocol: HEK-293 cells (transformed primary human embryo kidney cells, ATCC# CRL-1573) were cultured to confluency in DMEM-10% FBS high-glucose medium (GIBCO-BRL, Rockville, Md). Cells were cultured in 6-well plates and were treated with PAF (100 nM) for 60 min or interleukin-1β (“IL-1β”; 10 ng/ml) for 30 min, and then frozen for later assays for JNK and ERK as described below. To test the effect of compounds of the LAU-0900 series, HEK-293 cells were treated for 30 min with various concentrations (from 10 nM to 1 μM) of the experimental LAU-0900 series compound before the addition of PAF or IL-1β. […]\nTo measure the JNK activity, aliquots of 5 μg immunoprecipitates were incubated for 30 min at 30° C. using 10 μg GST-cJUN (Santa Cruz Biotechnology, Santa Cruz, Calif.) as substrate. […] The filter papers were washed twice with 10 mL per square 1% phosphoric acid, followed by one wash with water. ^32P on the filter paper was counted in a scintillation counter to quantify the phosphorylation of substrate proteins."}, "human COX-2 promoter [3]": {"test_system": "human COX-2 promoter", "assay": "IL-1β-induced COX-2 promoter-luciferase transcription in CV-1 cells", "type": "cell-based", "settings": "100 nM compound, 10 nM IL-1β", "description": "(§1) To test the ability of LAU-0900 series compounds to inhibit COX-2 expression, a kidney cell line was transiently transfected with the 830-base-pair human COX-2 promoter construct (proximal to the transcription start site) fused to the luciferase gene as a reporter as described below.\n(§2) Transfection of CV-1 cells with human COX-2promoterfused with LUC: C V-1 Cells (African green monkey kidney cell line, ATCC # CCL-17) were grown in DMEM-F12 (GIBCO-BRL, Rockville, Md.) supplemented with 10% FBS (fetal bovine serum) in 6-well plates. At 80% confluence, the cells were transfected with 10 μg human COX-2 promoter-LUC construct (containing 830 base pairs of the human COX-2 promoter (donated by Dr. Stephen Prescot, Huntsman Cancer Institute, Salt Lake City, Utah) using a liposomal transfection reagent (DOTAP, Roche Diagnostics, Gmbh, Mannheim, Germany). Promoterless β-galactosidase construct (Promega, Madison, Wis.) was co-transfected to assess transfection efficiency. Three hours after transfection at 37° C., the medium was removed, and the cells were washed with phonsphate-buffered saline solution, pH 7.2 (PBS; Gibco-BRL, Rockville Md. The plates were further incubated at 37° C. in complete medium DMEM-F12 with 10% FBS for about 8-10 hr. Before the addition of the inducers of COX-2, PAF (100 nM) or IL-1β (10 ng/ml), the CV-1-transfected cells were serum-starved for 8 hr at 37° C. After the addition of the inducers, the cells were incubated for 8-10 hr at 37° C. Then the medium was removed, the cells were washed with PBS, harvested, and frozen at −80° C. until used for assays.\n(§3) To test the effectiveness of the LAU-0900 series compounds, the transfected cells were treated for 1 hr with 100 nM of various LAU-0900 series compounds before the addition of the inducers (either PAF or IL-1β, and the LAU-0900 compound remained in the medium throughout the incubation period.\n(§4) Luciferase assay of transfected CV-1 cells: Frozen cells were homogenized in 300 μl luciferase assay buffer (“ALL”, Analytical Luminescence Laboratory, San Diego, Calif.), and cellular debris was collected as a pellet by centrifugation at 2800×g for 20 min at 4° C. Supernatants (20-30 μl) were normalized to 1 μg/ml of total protein content, and were mixed with 70-80 μl ALL buffer. Reactions were initiated by injection of 100 μl of 1 mM luciferin (Sigma Chemical Co., St. Louis, Mo.). The relative light units were determined by using an ALL luminometer that recorded over 20-second intervals."}, "human COX-2 promoter [4]": {"test_system": "human COX-2 promoter", "assay": "PAF-induced COX-2 promoter-luciferase transcription in CV-1 cells", "type": "cell-based", "settings": "100 nM compound, 100 nM PAF", "description": "as §1, §2, §3, §4"}, "ARPE-19 cells": {"test_system": "ARPE-19 cells", "assay": "Oxidative stress-induced cell death (TNF + H2O2), Hoechst staining", "type": "cell-based, human", "settings": "TNF 10 ng/ml + H2O2 1.6 μM", "description": "To test the effectiveness of the LAU-0900 series compounds as inhibitors of oxidative stress-induced cell death, human retinal pigment epithelial cells in culture (ARPE-19 cells, ATCC #CRL-2302) were used. ARPE-19 cells were cultured to confluence in DMEM-10% FBS medium (Gibco-BRL). The cells were then divided into 11 groups. Nine groups were exposed overnight to […] of a test compound selected from LAU-0901, LAU-0903, LAU-0904, LAU-0905, LAU-0906, LAU-0907, LAU-0908, LAU-0909, and LAU-0910. The other two groups were control groups, and were not exposed to any test chemical. In the nine groups and in one control group, oxidative stress was triggered by the addition of a combination of tumor necrosis factor (“TNF”; 10 ng/ml) and hydrogen peroxide (“H2O2”; 1.6 μM). The second control group was not treated with TNF and H2O2.\nThe amount of Hoeschst staining was least in the group treated with LAU-0901, and most in the group treated with LAU-0910."}, "[5]": {"molecular_target": "T1, cell-surface-type PAF receptor over-expressed in CHO-B cells (Cavia porcellus, UniProt P21556)", "T1 construct": "expressed in transfected cells; host or cells: Chinese hamster ovary cells: CHO-B (high expression) and CHO-A (mild expression), used as cell homogenates", "T1 sequence (P21556 whole entry)": "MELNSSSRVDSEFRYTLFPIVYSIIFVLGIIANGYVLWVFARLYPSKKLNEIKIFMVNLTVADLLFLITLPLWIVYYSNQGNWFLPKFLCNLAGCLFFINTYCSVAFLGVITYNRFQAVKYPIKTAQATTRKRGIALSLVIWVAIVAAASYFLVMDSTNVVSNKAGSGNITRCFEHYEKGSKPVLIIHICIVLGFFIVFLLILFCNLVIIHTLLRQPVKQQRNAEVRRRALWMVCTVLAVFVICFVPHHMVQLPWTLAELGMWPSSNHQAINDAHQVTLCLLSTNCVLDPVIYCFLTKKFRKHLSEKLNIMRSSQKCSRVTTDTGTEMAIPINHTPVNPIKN", "assay": "Competition for 3H-PAF binding to CHO-B cell homogenates", "settings": "CHO-B homogenates", "description": "(§5) Binding studies were performed on subcellular fractions of tissues obtained from rat brain cortex, according to procedures described in V. Marcheselli et al., “Distinct platelet-activating factor binding sites in synaptic endings and in intracellular membranes of rat cerebral cortex,” J. biol. Chem., vol. 265, pp. 9140-9145 (1990). Freshly dissected brain tissues were homogenized in ice-cold buffer (50 mM Tris-HCl, 2 mM EGTA, 5 mM PMSF, 250 mM sucrose, 7.4 pH). Subcellular fractions were obtained by differential centrifugation. The microsomal fraction was sedimented after 100,000×g for 1 hour centrifugation. In addition, three cell lines from Chinese hamster ovary (CHO) with varying expression of PAF receptors, CHO-A, CHO-B, and CHO-C cells (from Dr. Takao Shiizu, University of Tokyo, Tokyo, Japan) were cultured to the fourth-passage cells. These cells were cultured to confluence, then detached from their culturing flasks, and pelleted by rapid centrifugation (3,000 rpm, 10 min). Cellular pellets were homogenized in ice-cold buffer as described above. Freshly obtained microsomal fractions or CHO cellular homogenates were utilized for saturation, displacement, and competition studies using ^3H-PAF as the hot ligand, unlabeled-PAF to detect non-specific binding, and a LAU-0900 series compound to displace by competition ^3H-PAF bound to a receptor.\n(§6) See B. Liu et al., “Implication of protein kinase C alpha in PAF-stimulated phospholipase D Activation in Chinese hamster ovary (CHO) cells expressing PAF receptor,” Biochem. Biophys. Res. Commun., vol.214, pp.418-423 (1995). […] Both the constants of inhibition (KI) and 50% of inhibitory activity (IC50) were significant at a low concentration of LAU-0903."}, "[6]": {"test_system": "CHO-C cells (do not exp PAF-R)", "assay": "Competition for 3H-PAF binding to CHO-C cell homogenates", "settings": "CHO-C homogenates", "description": "as §5, §6"}, "[7]": {"molecular_target": "intracellular type PAF receptor (rat brain microsomal preparations) (Rattus norvegicus, UniProt P46002)", "sequence (P46002 whole entry)": "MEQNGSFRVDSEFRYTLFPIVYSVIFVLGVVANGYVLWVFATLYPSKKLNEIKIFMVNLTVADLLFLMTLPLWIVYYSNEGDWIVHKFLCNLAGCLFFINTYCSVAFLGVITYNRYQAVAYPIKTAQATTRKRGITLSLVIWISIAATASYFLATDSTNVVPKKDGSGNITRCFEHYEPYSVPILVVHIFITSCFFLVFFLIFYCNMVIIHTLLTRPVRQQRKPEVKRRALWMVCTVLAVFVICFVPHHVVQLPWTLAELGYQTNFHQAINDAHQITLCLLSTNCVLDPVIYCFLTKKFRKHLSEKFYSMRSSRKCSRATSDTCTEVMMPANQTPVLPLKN", "assay": "Competition for 3H-PAF binding to rat brain cortex microsomal membranes", "settings": "rat brain microsomal", "description": "as §5"}, "[8]": {"settings": "known LD50; cited from earlier work"}, "[9]": {"settings": "30 mg/kg 1 hr after reperfusion following 1 hr of MCA-O"}}, "note": "Counter-ions that a name gives are not always drawn.", "data": [{"compound": "CC1=C(C(=O)OCCOc2ccc(Cl)c(Cl)c2)C(C)C(C(=O)OC(CN2CCOCC2)CN2CCOCC2)=C(C)N1", "note": "(centres unmarked) [LAU-0901, 2,4,6-Trimethyl-1,4-dihydro-pyridine-3,5-dicarboxylic acid 5-[2-(3,4-dichlorophenoxy)]ethyl ester 3-[1,3-di-(4-morpholinyl)-2-propyl-1-esterdihydrochloride]", "values": [{"measurement": "Reduction of infarcted volume", "setting": "[1]; [9]", "value": 40, "unit": "%"}, {"measurement": "Reduction of infarcted volume", "setting": "[1]; 30 mg/kg at the onset of MCA-O, 1 hr MCA-O, killed 24 hr later", "value": 40, "unit": "%"}, {"measurement": "Reduction of infarcted volume", "setting": "[1]; 30 mg/kg intraperitoneally 1 h before MCA-O, 1 hr MCA-O, killed 24 hr after", "value": 55, "unit": "%"}, {"measurement": "Lowest concentration inhibiting PAF-induced JNK", "setting": "[2]", "value": "≤ 10", "unit": "nM"}]}, {"compound": "COC(=O)C1=C(C)NC(C)=C(C(=O)OCCCSc2ccc(F)cc2)C1C", "note": "(centres unmarked) [LAU-0904, 2,4,6-Trimethyl-1,4-dihydro-pyridine-3,5-dicarboxylic acid 5-[3-(4-fluorophenysulfanyl)]-propyl-1-ester 3-methyl ester]", "values": [{"measurement": "Reduction of infarcted volume", "setting": "[1]; [9]", "value": 40, "unit": "%"}]}, {"compound": "CCCOc1ccc(SCCCOC(=O)C2=C(C)NC(C)=C(C(=O)OC)C2C)cc1", "note": "(centres unmarked) [LAU-0907, 2,4,6-Trimethyl-1,4-dihydro-pyridine-3,5-dicarboxylic acid 5-[3-(4-propoxyphenylsulfanyl)]-propyl-1-ester 3-methyl ester]", "values": [{"measurement": "Inhibition of COX-2 transcription induced by IL-1β", "setting": "human COX-2 promoter [3]", "value": "inhibited"}, {"measurement": "Inhibition of COX-2 transcription induced by PAF", "setting": "human COX-2 promoter [4]", "value": "inhibited"}]}, {"compound": "COC(=O)C1=C(C)NC(C)=C(C(=O)OCCCOc2ccc(/C=C/C(C)=O)cc2)C1C", "note": "(centres unmarked) [LAU-0908]", "values": [{"measurement": "Inhibition of COX-2 transcription induced by IL-1β", "setting": "human COX-2 promoter [3]", "value": "inhibited"}, {"measurement": "Inhibition of COX-2 transcription induced by PAF", "setting": "human COX-2 promoter [4]", "value": "inhibited"}]}, {"compound": "CCCCOc1ccc(OCCCOC(=O)C2=C(C)NC(C)=C(C(=O)OC)C2C)cc1", "note": "(centres unmarked) [LAU-0910, 2,4,6-Trimethyl-1,4-dihydropyridine-3,5-dicarboxylic acid 3-[3-(4-butoxyphenoxy)propyl]ester 5-methyl ester]", "values": [{"measurement": "Amount of Hoechst staining (cytoprotection)", "setting": "ARPE-19 cells", "value": "most"}]}, {"compound": "CCCC(=O)c1ccc(OCCCOC(=O)C2=C(C)NC(C)=C(C(=O)OC)C2C)cc1", "note": "(centres unmarked) [LAU-0913, 2,4,6-Trimethyl-1,4-dihydro-pyridine-3,5-dicarboxylic acid 5-[3-(4-butyryl-phenoxy)-propyl]1-ester 3-methyl ester]", "values": [{"measurement": "Inhibition of COX-2 transcription induced by IL-1β", "setting": "human COX-2 promoter [3]", "value": "inhibited"}, {"measurement": "Inhibition of COX-2 transcription induced by PAF", "setting": "human COX-2 promoter [4]", "value": "inhibited"}]}, {"compound": "CCCCCCCCCCCCCCCCOC[C@H](COP(=O)([O-])OCC[N+](C)(C)C)OC(C)=O", "note": "[^3H-PAF, ^3H-platelet-activating factor, reference compound]", "values": [{"measurement": "Kd", "setting": "[5]", "value": 0.15, "unit": "nM"}, {"measurement": "Kd 3H-PAF", "setting": "[6]", "value": "No binding"}, {"measurement": "Kd", "setting": "[7]; high-affinity binding site (H)", "value": 0.00205, "unit": "nM"}, {"measurement": "Kd", "setting": "[7]; low-affinity binding site (L)", "value": 30, "unit": "nM"}]}, {"compound": "CC(=O)Nc1ccc(O)cc1", "note": "[acetaminophen]", "values": [{"measurement": "LD50", "setting": "[8]", "value": 560, "unit": "mg/kg"}]}]}
